# Experimental data: patent publication US11414431B2, “Substituted pyrazolo[1,5-a]pyrimidines as TYK2 inhibitors” (Nimbus Lakshmi, Inc., priority 2018, dated 2022)
# Test system: IL-12 induced STAT4 phosphorlyation mediated by TYK2/JAK2
# Test: IL-12 Induced pSTAT4 in Human PBMC
# Format: cell-based
# Settings: 1.7 ng/mL IL-12 for 30 minutes
# Method: Human PBMC were isolated from buffy coat and are stored frozen for assays as needed. […] 15 μL of compound or DMSO was added to the well at the desired concentrations and incubated at 1 hr at 37° C. 15 μL of stimulus (final concentration of 1.7 ng/mL IL-12) was added for 30 minutes prior to pSTAT4 and total STAT4 analysis using cell lysates prepared and analyzed by MSD reagents as per manufacturer protocol. The final DMSO concentration of compound in the assay was 0.1%.
# The IL-12 induced pSTAT4 assay evaluates the inhibition of IL-12 induced STAT4 phosphorlyation mediated by TYK2/JAK2 (heterpdimeric complex).
row,SMILES,IC50 [µM]
1,CNc1cc(-c2cnc3n([C@H]4CCOC[C@H]4F)cccc2-3)nc2c(C(=O)NC3CC[C@H]3O)cnn12 (some centres unmarked) [Compound I-942],0.5 to 1
2,CNc1cc(-c2cnc3n([C@@H]4COC[C@H]4OC)cccc2-3)nc2c(C(=O)NC3CC[C@H]3O)cnn12 (some centres unmarked) [Compound I-865],0.5 to 1
3,CNc1ccc(-c2cc(NC)n3ncc(C(=O)N[C@H]4CC[C@@H]4F)c3n2)n2ccnc12 [Compound I-481],< 0.1
4,CNc1cc(Nc2cccn(-c3ncccc3F)c2=O)nc2c(C(=O)N[C@@H]3CC[C@@]3(C)OC)cnn12 [Compound I-415],< 0.1
5,CNc1cc(Nc2cccn([C@H]3CCCC[C@H]3O)c2=O)nc2c(C(=O)NC3CC[C@]3(C)OC)cnn12 (some centres unmarked) [Compound I-423],< 0.1
6,CNc1cc(Nc2cccn([C@H]3C[C@@H]3F)c2=O)nc2c(C(=O)NC3CCC3(F)F)cnn12 (some centres unmarked) [Compound I-277],< 0.1
7,CNc1cc(-c2cn(C3CCCC3)c3ncccc23)nc2c(C(=O)NC3CCC3(F)F)cnn12 (centres unmarked) [Compound I-683],< 0.1
8,CNc1cc(Nc2cccn([C@@H]3CCCOC3)c2=O)nc2c(C(=O)N[C@@H]3CCC3(F)F)cnn12 [Compound I-317],< 0.1
9,CNc1cc(-c2cn([C@H]3CN(C)C[C@@H]3F)c3ncccc23)nc2c(C(=O)N[C@H]3CC[C@@H]3OC)cnn12 [Compound I-640],< 0.1
10,CNc1cc(-c2cn(CC(=O)N3CCCC3)c3ncccc23)nc2c(C(=O)NC3CC[C@@H]3OC)cnn12 (some centres unmarked) [Compound I-931],0.1 to 0.5
11,CNc1cc(-c2cn([C@H]3CCC4(C3)OCCO4)c3ncccc23)nc2c(C(=O)NC3CC[C@@H]3OC)cnn12 (some centres unmarked) [Compound I-671],< 0.1
12,CNc1cc(Nc2cccn(C3CCOCC3)c2=O)nc2c(C(=O)NC3CC[C@@H]3F)cnn12 (some centres unmarked) [Compound I-188],< 0.1
13,CNc1cc(Nc2cccn(C3COC3)c2=O)nc2c(C(=O)N[C@@H]3CCC3(F)F)cnn12 [Compound I-282],< 0.1
14,CNc1cc(-c2cn([C@H]3COC[C@H]3F)c3ncccc23)nc2c(C(=O)N[C@H]3COC[C@H]3O)cnn12 [Compound I-726],< 0.1

# More lines, now with the values ahead:
row,IC50 [µM],SMILES
1,< 0.1,CNc1cc(Nc2cccn([C@H]3C[C@H](F)C3)c2=O)nc2c(C(=O)N[C@@H]3CCC3(F)F)cnn12 [Compound I-285]
2,< 0.1,CNc1cc(Nc2cccn([C@H]3CCC[C@H]3O)c2=O)nc2c(C(=O)N[C@H]3CC[C@]3(C)OC)cnn12 [Compound I-391]
3,< 0.1,CNc1cc(-c2cn([C@@H]3CC3(F)F)c3ncccc23)nc2c(C(=O)NC3CC[C@H]3O)cnn12 (some centres unmarked) [Compound I-548]
4,< 0.1,CNc1cc(Nc2cccn([C@H]3C[C@H](OC)C3)c2=O)nc2c(C(=O)N[C@H]3CC[C@@H]3OC)cnn12 [Compound I-255]
5,< 0.1,CNc1cc(Nc2cccn([C@H]3C[C@H](F)C3)c2=O)nc2c(C(=O)NC3CC[C@@H]3F)cnn12 (some centres unmarked) [Compound I-164]
6,< 0.1,CNc1cc(-c2cnc3n([C@@H]4CCOC[C@H]4OC)cccc2-3)nc2c(C(=O)N[C@@H]3CC[C@H]3OC)cnn12 [Compound I-896]
7,< 0.1,CNc1cc(-c2cn([C@H]3CCOC[C@H]3OC)c3ncccc23)nc2c(C(=O)N[C@H]3CC[C@@H]3OC)cnn12 [Compound I-666]
8,< 0.1,CNc1cc(Nc2cccn([C@H]3CCCOC3)c2=O)nc2c(C(=O)NC3CC[C@@H]3F)cnn12 (some centres unmarked) [Compound I-197]
9,< 0.1,CNc1cc(Nc2cccn([C@H]3CCCC[C@H]3O)c2=O)nc2c(C(=O)N[C@@H]3CC[C@H]3F)cnn12 [Compound I-214]
10,< 0.1,CNc1cc(-c2cn([C@@H]3CCOC3)c3ncccc23)nc2c(C(=O)N[C@H]3CC[C@@H]3OC)cnn12 [Compound I-610]
11,< 0.1,CNc1cc(-c2cn([C@@H]3CCOC[C@H]3F)c3ncccc23)nc2c(C(=O)N[C@H]3CC[C@@H]3OC)cnn12 [Compound I-804]
12,< 0.1,CNc1cc(-c2cnc3n([C@@H]4COC[C@H]4O)cccc2-3)nc2c(C(=O)NC3CC[C@@H]3F)cnn12 (some centres unmarked) [Compound I-827]
13,< 0.1,CNc1cc(Nc2cccn([C@H]3C[C@@H]3F)c2=O)nc2c(C(=O)N[C@H]3CC[C@@H]3F)cnn12 [Compound I-149]
14,< 0.1,CNc1cc(-c2cnc3n([C@@H]4COC[C@H]4O)cccc2-3)nc2c(C(=O)N[C@H]3CC[C@@H]3F)cnn12 [Compound I-830]
15,< 0.1,CNc1cc(-c2cn(C3COC3)c3ncccc23)nc2c(C(=O)NC3CCC3(F)F)cnn12 (centres unmarked) [Compound I-673]
16,< 0.1,CNc1cc(Nc2cccn([C@H]3C[C@H](OC)C3)c2=O)nc2c(C(=O)N[C@H]3CCC3(F)F)cnn12 [Compound I-293]
17,< 0.1,CNc1cc(Nc2cccn(C3COC3)c2=O)nc2c(C(=O)N[C@@H]3C[C@@H]3F)cnn12 [Compound I-125]
18,< 0.1,CNc1cc(-c2cn([C@H]3COC[C@@H]3OC)c3ccccc23)nc2c(C(=O)N[C@H]3CC[C@H]3O)cnn12 [Compound I-790]
19,< 0.1,CNc1cc(Nc2cccn([C@@H]3CC[C@H]3OC)c2=O)nc2c(C(=O)N[C@H]3CC[C@H]3O)cnn12 [Compound I-243]
20,< 0.1,CNc1cc(Nc2cccn([C@H]3C[C@@H](OC)C3)c2=O)nc2c(C(=O)NC3CC[C@@H]3F)cnn12 (mixture of isomers) [Compound I-173]
21,< 0.1,"CNc1cc(Nc2cccn([C@H]3[C@@H]4COC[C@@H]43)c2=O)nc2c(C(=O)N[C@@H]3C[C@H]3OC)cnn12 [Compound I-25, 5-((1-((1R,5S,6r)-3-Oxabicyclo[3.1.0]hexan-6-yl)-2-oxo-1,2-dihydropyridin-3-yl)amino)-N-((1R,2R)-2-methoxycyclopropyl)-7-(methylamino)pyrazolo[1,5-a]pyrimidine-3-carboxamide]"
22,< 0.1,CNc1cc(-c2cn([C@H]3COC[C@@H]3OC)c3ncccc23)nc2c(C(=O)N[C@H]3CC[C@H]3F)cnn12 [Compound I-529]
23,< 0.1,CNc1cc(Nc2cccn([C@H]3[C@@H]4COC[C@@H]43)c2=O)nc2c(C(=O)NC3CC[C@H]3F)cnn12 (some centres unmarked) [Compound I-203]
24,< 0.1,CNc1cc(Nc2cccn(C3CCOCC3)c2=O)nc2c(C(=O)N[C@@H]3CCC3(F)F)cnn12 [Compound I-311]
25,< 0.1,CNc1cc(Nc2cccn(C3CCOCC3)c2=O)nc2c(C(=O)NC3CC[C@@]3(C)OC)cnn12 (some centres unmarked) [Compound I-405]
26,< 0.1,CNc1cc(-c2cnc3n([C@@H]4COC[C@H]4O)cccc2-3)nc2c(C(=O)N[C@H]3CCC3(F)F)cnn12 [Compound I-902]
27,< 0.1,CNc1cc(Nc2cccn([C@@H]3CCC[C@@H]3O)c2=O)nc2c(C(=O)N[C@@H]3CCC3(F)F)cnn12 [Compound I-305]
28,< 0.1,CNc1cc(Nc2cccn(-c3ccccn3)c2=O)nc2c(C(=O)N[C@@H]3CCC3(F)F)cnn12 [Compound I-320]
29,< 0.1,CNc1cc(-c2cn([C@H]3C[C@@H](O)C3)c3ncccc23)nc2c(C(=O)NC3CC[C@@H]3F)cnn12 (some centres unmarked) [Compound I-510]

# Same assay, conditions: 0.5 h, 1.7 ng/mL IL-12 for 30 minutes
row,IC50 [µM],SMILES
1,< 0.1,"CNc1cc(-c2cn([C@H]3CO[C@@H](COC)C3)c3ncccc23)nc2c(C(=O)N[C@H]3CC[C@@H]3OC)cnn12 [Compound I-1018, N-((1S,2S)-2-methoxycyclobutyl)-5-(1-(5-(methoxymethyl)tetrahydrofuran-3-yl)-1H-pyrrolo[2,3-b]pyridin-3-yl)-7-(methylamino)pyrazolo[1,5-a]pyrimidine-3-carboxamide]"
2,< 0.1,"CNc1cc(-c2cn([C@H]3CCOC[C@H]3OC)c3ncccc23)nc2c(C(=O)NC3CC[C@@H]3OC)cnn12 (stereo partly drawn) [Compound I-665, N-((trans-1,2)-2-Methoxycyclobutyl)-5-(1-((3S,4S)-3-methoxytetrahydro-2H-pyran-4-yl)-1H-pyrrolo[2,3-b]pyridin-3-yl)-7-(methylamino)pyrazolo[1,5-a]pyrimidine-3-carboxamide]"
3,< 0.1,"CNc1cc(-c2cn([C@H]3C[C@@H](COC)C3)c3ncccc23)nc2c(C(=O)NC3CC[C@@H]3OC)cnn12 (stereo partly drawn) [Compound I-932, N-(2-methoxycyclobutyl)-5-(1-((1s,3R)-3-(methoxymethyl)cyclobutyl)-1H-pyrrolo[2,3-b]pyridin-3-yl)-7-(methylamino)pyrazolo[1,5-a]pyrimidine-3-carboxamide]"
4,< 0.1,"CNc1cc(Nc2cccn([C@H]3C[C@@H]3F)c2=O)nc2c(C(=O)NC3CC[C@@H]3F)cnn12 (stereo partly drawn) [Compound I-148, N-((trans-1,2)-2-Fluorocyclobutyl)-5-((1-((1S,2S)-2-fluorocyclopropyl)-2-oxo-1,2-dihydropyridin-3-yl)amino)-7-(methylamino)pyrazolo[1,5-a]pyrimidine-3-carboxamide]"
5,< 0.1,"CNc1cc(-c2cn([C@@H]3CCOC[C@H]3F)c3ncccc23)nc2c(C(=O)NC3CC[C@H]3O)cnn12 (stereo partly drawn) [Compound I-592, 5-(1-((3S,4R)-3-Fluorotetrahydro-2H-pyran-4-yl)-1H-pyrrolo[2,3-b]pyridin-3-yl)-N-((cis-1,2)-2-hydroxycyclobutyl)-7-(methylamino)pyrazolo[1,5-a]pyrimidine-3-carboxamide]"
6,< 0.1,"CNc1cc(-c2cn([C@H]3CN(C)C[C@@H]3F)c3ncccc23)nc2c(C(=O)NC3CC[C@@H]3OC)cnn12 (stereo partly drawn) [Compound I-639, 5-(1-((3S,4S)-4-Fluoro-1-methylpyrrolidin-3-yl)-1H-pyrrolo[2,3-b]pyridin-3-yl)-N-((trans-1,2)-2-methoxycyclobutyl)-7-(methylamino)pyrazolo[1,5-a]pyrimidine-3-carboxamide]"
7,< 0.1,"CNc1cc(-c2cn([C@H]3CCC[C@H]3F)c3ncccc23)nc2c(C(=O)NC3COC[C@H]3O)cnn12 (stereo partly drawn) [Compound I-721, 5-(1-((1S,2R)-2-Fluorocyclopentyl)-1H-pyrrolo[2,3-b]pyridin-3-yl)-N-((cis-3,4)-4-hydroxytetrahydrofuran-3-yl)-7-(methylamino)pyrazolo[1,5-a]pyrimidine-3-carboxamide]"
